Experimental data reported in US12358880B2, “1,4-bis-(2-hydroxy-benzyl)-1,4,7-triazacyclononane derivatives and similar compounds as ligands in iron(III) complexes for use as MRI contrast agents” (BRACCO IMAGING S.P.A., priority 2022, dated 2025).
Where two headings read alike, the source gives them in different places. Marks after values point to notes of the source that are not given here. Each block holds one molecule with its values, some of them ahead of it.

What was measured:
[1] = 0.15M NaNO3; from Baranyai et al., Chem. Sci. 2021; cited from earlier work
[2] = Protonation constants of the Fe(III) complexes (pH-potentiometry / UV spectrophotometry); format: physicochemical
Protocol: The protonation constants (KMHiLigand=[MHiLigand]/([MHi-1Ligand]×[H^+])) of the Fe(III) complexes of Compound 2, of Compound 4, of NOTA (comparative), and of HBED (comparative) were determined by pH-potentiometric and/or by spectrophotometric studies.
In particular, the protonation constants of the Fe(NOTA) and Fe(HBED) complexes were determined using pH-potentiometry by titrating the pre-prepared complexes from pH=1.7 to pH=12.0 with 0.2 M NaOH([FeL]=0.002 M). For the pH measurements and titrations, Metrohm 888 Titrando titration workstation Metrohm-6.0234.110 combined electrode was used. Equilibrium measurements were carried out at a constant ionic strength (0.15 M NaNO3 or NaClO4) in 6 ml samples at 25° C. The solutions were stirred, and N2 was bubbled through them. The titrations were made in the pH range of 1.7-12.0. KH-phthalate (pH=4.005) and borax (pH=9.177) buffers were used to calibrate the pH meter. For the calculation of [H^+] from the measured pH values, the method disclosed in Irving et al. Anal. Chim. Acta, 1967, 38, 475-488 was used as follows: a 0.01M HNO3 or HClO4 solution was titrated with a standardized NaOH solution at 0.15 M NaNO3 ionic strength. The differences (A) between the measured (pHread) and calculated pH (−log [H^+]) values were used to obtain the equilibrium H^+ concentration from the pH values measured in the titration experiments (A=0.02 for 0.15 M NaNO3, 0.01 for 0.15 M NaClO4). For the equilibrium calculations, the stoichiometric water ionic product (pKw) was also needed to calculate [OH^−] values under basic conditions. The VNaOH-pHread data pairs of the HNO3—NaOH titration obtained in the pH range 10.5-12.0 were used to calculate the pKw value (pKw=13.76).
The protonation constants of Fe(Compound 2) and Fe(Compound 4) complexes were determined by UV spectrophotometry analysis in the wavelength range of 210-700 nm ([Fe(Compound 2)]=43 μM, [Fe(Compound 4)]=100 μM, 0.15 M NaClO4, 25° C.) according to the method disclosed in Example 11A above.

[3] = for pFe (−log [Fe^3+]free, conditional stability): 10 µM, pH 7.4
Protocol: (§1) To assess the thermodynamic stability of the Fe(III) complexes of the invention, as well as of comparative ones, the protonation constants of the respective ligands first, and then of the Fe(III) complexes, were determined by pH-potentiometry and/or by UV spectrophotometry. Finally, based on the protonation constants, the thermodynamic stability constant of the Fe(III) complexes of the invention were determined by observing the competition reaction between the Fe(III) complexes and the N,N′-bis(2-hydroxybenzyl)ethylenediamine-N,N′-diacetic acid (HBED) ligand using capillary zone electrophoresis (CZE) for Compound 2 and Vis spectrophotometry for Compound 4.
(§2) The thermodynamic stability constants (KMLigand=([MLigand]/([M]×[Ligand])) of the Fe(III) complexes were determined as follows.
(§3) The stability constant of the Fe(NOTA) complex was determined by spectrophotometry studies of the Fe^3+-NOTA system at the absorption band of Fe^III complexes at [H^+]=0.01-3.0 M in the wavelength range of 350-800 nm. The concentrations of Fe^3+ and NOTA were 0.002 M. The H^+ concentration in the samples was adjusted with the addition of calculated amounts of a 6 M solution of HNO3 (I=[Na^+]+[H^+]=0.15, [H^+]≤0.15 M). The samples were kept at 25° C. for two weeks.
(§4) The absorbance values of the samples were determined at 11 wavelengths (370, 380, 390, 395, 400, 405, 410, 415, 420, 425 and 430 nm). For the calculations of the thermodynamic stability constant of the Fe(NOTA), the molar absorptivities of Fe^3+ and Fe(NOTA) were determined by recording the spectra of 1.0×10^−3, 1.5×10^−3, 2.0×10^−3 and 2.5×10^−3 M solutions of Fe^3+ and Fe(NOTA) solutions. The absorption spectra of the Fe(NOTA) solutions were recorded in the pH range of 1.7-7.5. All spectrophotometric measurements were performed at 25° C. in 0.15 M NaNO3 solution. The pH was adjusted by stepwise addition of concentrated NaOH or HNO3 solutions.
(§5) The stability constants of the Fe(HBED) complex was determined by following the competition reaction between HBED and NOTA ligands for Fe^3+-ion with spectrophotometry at the absorption band of Fe(HBED) complex in the wavelength range of 400-700 nm. […] The time needed to reach the equilibria was determined by spectrophotometry. The absorbance values of the samples were determined at the absorption band of the Fe(HBED) complex ([Fe(HBED)]-species predominates at pH=5.0). For the calculations of the thermodynamic stability constants of the Fe(HBED) complexes, the molar absorptivities of [Fe(HBED)]-species were determined by recording the spectra of 0.5, 0.1 and 0.2 mM solutions of [Fe(HBED)]^− at pH=5 in the presence of 0.15 M NaNO3. […] The thermodynamic stability constants were calculated with the PSEQUAD program. […]

[4] = Kinetic inertness: transchelation reactions with excess HBED as exchanging ligand; format: physicochemical
Protocol: To obtain data relating to the kinetic inertness of Fe(Compound 2), Fe(Compound 4) and Fe(NOTA) (comparative), the transchelation reactions (schematized below) were investigated by VIS-spectrophotometry (for Fe(Compound 4) and Fe(NOTA), comparative) and by Capillary Zone Electrophoresis (CZE) (for Fe(Compound 2)) in the presence of a large excess of HBED as an exchanging ligand (Fe(Compound 2): [Fe(Compound 2)]=87 μM, [HBED]=0.1 and 0.2 M, 1.0 M NaClO4, 25° C.; Fe(Compound 4): [Fe(Compound 4)]=100 μM, [HBED]=0.002 and 0.02 M, 0.15 M NaNO3, 25° C. Fe(NOTA): [Fe(NOTA)]=0.2 mM, [HBED]=2.0 and 4.0 mM, 0.15 M NaNO3, 25° C.) in order to guarantee the pseudo-first order kinetic conditions. FeL+HBED ? Fe(HBED)+L with L=Compound 2, Compound 4 or NOTA. A) Determination of Kinetic Inertness of Fe(III) Complexes
The transchelation reactions of Fe(Compound 4) and Fe(NOTA) (comparative) were studied by spectrophotometry, following the formation of the resulting Fe(HBED) complex at 472 and 470 nm with PerkinElmer Lambda 365 UV-Vis spectrophotometer. The concentration of the Fe(Compound 4) and Fe(NOTA) complex was 0.1 and 0.2 mM, while the concentration of the HBED was 10-200 times higher, in order to guarantee pseudo-first-order conditions. The temperature was maintained at 25° C. and the ionic strength of the solutions was kept constant, 0.15 M for NaNO3. The exchange rates were studied in the pH range about 9.5-14.0. Buffer was not used since the excess of HBED was able to maintain the constant pH values at pH<12. […] The pseudo-first-order rate constants (kd) were calculated by fitting of the absorbance—time data pairs to Equation 2.
[formula] where At, A0 and Ap are the absorbance values at time t, the start of the reaction and at equilibrium, respectively. […] The pseudo-first-order rate constants (kd) were calculated by fitting the area-time data pairs to Equation 2 above, where At, A0 and Ap are the area values at time t, the start of the reaction and at equilibrium, respectively. […]

[5] = Thermodynamic stability of the Fe(III) complexes (competition with HBED/NOTA, CZE or spectrophotometry); settings: Spectrophotometry, 0.15M NaNO3, 25° C.
Protocol: as §1, §2, §3, §4, §5

[6] = 60 MHZ, 40° C. in PBS buffer; cited from earlier work
[7] = Spectrophotometry, 0.15M NaClO4, 25° C.
[8] = 0.15M NaNO3, 25° C., spectrophotometry
[9] = pH-potentiometry, 0.15M NaNO3, 25° C.

Structure (SMILES): O=C(O)CN(CC(=O)O)C1CCCCC1N(CC(=O)O)CC(=O)O (stereo not drawn) [CDTA, trans-cyclohexane diamine tetraacetic acid]
kd (s^−1) at pH = 7.4 (dissociation rate constant) [1]: 2.1 × 10^−9 s^−1

Structure (SMILES): Cc1cc(CNC(CO)CO)c(O)c(CN2CCN(Cc3cc(C)cc(CNC(CO)CO)c3O)CCN(Cc3cc(C)cc(CNC(CO)CO)c3O)CC2)c1 [Compound 2, 2,2′,2″-{1,4,7-triazonane-1,4,7-triyltris[methylene(2-hydroxy-5-methyl-3,1-phenylene)methyleneazanediyl]}tri(propane-1,3-diol)]
FeH2L (protonation constant of the Fe(III) complex) [2, 7]: 9.47 (1)^b
FeH3L (protonation constant of the Fe(III) complex) [2, 7]: 7.82 (5)^b
FeHL (protonation constant of the Fe(III) complex) [2, 7]: 10.53 (4)^b
pFe (−log [Fe^3+]free, conditional stability) [3]: 32.4
FeL (thermodynamic stability constant, log KFeL) ([3]; 4 weeks, 87 µM, pH 11): 44.0 (3)
kd (s^−1) at pH = 7.4 (dissociation rate constant) ([4]; 1.0M NaClO4, 25° C., CZE, extrapolated from data at pH>9.0): 1.9 × 10^−9 s^−1

Structure (SMILES): O=C(O)CN(CCN(CC(=O)O)CC(=O)O)CC(=O)O [EDTA]
kd (s^−1) at pH = 7.4 (dissociation rate constant) [1]: 2.9 × 10^−6 s^−1

Structure (SMILES): O=C(O)CN1CCN(CC(=O)O)CCN(CC(=O)O)CC1 [NOTA, reference compound]
FeLH−1 (protonation constant of the Fe(III) complex) [2, 9]: 9.12 (4)
kd (s^−1) at pH = 7.4 (dissociation rate constant) [4, 8]: 4.0 × 10^−9 s^−1

Second part, led by results:

FeH2L (protonation constant of the Fe(III) complex) [2, 7]: 6.02 (1)^b
FeHL (protonation constant of the Fe(III) complex) [2, 7]: 8.82 (1)^b
FeLH−1 (protonation constant of the Fe(III) complex) [2, 7]: 10.12 (1)^b
pFe (−log [Fe^3+]free, conditional stability) [3]: 26.5
Structure (SMILES): Cc1cc(CNC(CO)CO)c(O)c(CN2CCNCCN(Cc3cc(C)cc(CNC(CO)CO)c3O)CC2)c1 [Compound 4, 2,2′-{1,4,7-triazonane-1,4-diylbis[methylene(2-hydroxy-5-methyl-3,1-phenylene)methyleneazanediyl]}di(propane-1,3-diol)]
kd (s^−1) at pH = 7.4 (dissociation rate constant) [4, 8]: 3.4 × 10^−8 s^−1

FeL (thermodynamic stability constant, log KFeL) [5]: 40.2
Structure (SMILES): O=C([O-])CN(CCN(CC(=O)[O-])Cc1ccccc1[O-])Cc1ccccc1[O-].[Fe+3] [Fe(HBED)]

FeHL (protonation constant of the Fe(III) complex) [2, 9]: 1.87 (4)
FeLH−1 (protonation constant of the Fe(III) complex) [2, 9]: 12.3 (1)
Structure (SMILES): O=C(O)CN(CCN(CC(=O)O)Cc1ccccc1O)Cc1ccccc1O [HBED, N,N′-bis(2-hydroxybenzyl)ethylenediamine-N,N′-diacetic acid, reference compound]
r1 of Fe(III) complex [6]: 0.49 mM⁻¹ s⁻¹
